Here are results for 19 compounds from paper PMC12207250, “Investigations of amination reactions on an antimalarial 1,2,4-triazolo[4,3-a]pyrazine scaffold” (Beilstein Journal of Organic Chemistry, 2025).

Read-outs that look alike come from different tables or passages of the source.

Data set [1] concerns P. falciparum 3D7 (chloroquine-sensitive strain). Nature of the data set: In vitro antiplasmodial image-based assay. It counts as cell-based, Plasmodium falciparum. The note with it: for inhibition at 80 µM / IC50: Plasmodium falciparum; for inhibition at 80 µM: 3D7, accurate IC50 not determinable, read-out: growth inhibition against Pf 3D7 at the assay top dose; for IC50: read-out: Pf 3D7 IC50 ± SD; for Selectivity index (fold difference) IC50(HEK293)/IC50(Pf 3D7): HEK293 versus Pf 3D7. The method, then: Plasmodium falciparum 3D7 were cultured in RPMI1640 (Life Technologies, Camarillo, CA, USA) supplemented with 2.5 mg/mL Albumax II, 5% AB human serum, 25 mM HEPES, and 0.37 mM hypoxanthine. Human red blood cells (RBC) (O+) were supplied by Australian Red Cross LifeBlood in accordance with agreement 23-05QLD-23. Use of human RBC for antiplasmodial experimentation was in accordance with Griffith University Human Ethics Exemption Approval #03/08/11019. Ring-stage parasites were treated with compounds following two rounds of sorbitol synchronisation, as previously described. Puromycin, chloroquine, pyrimethamine, and dihydroartemisinin were used as reference compounds. Following incubation of assay plates for 72 h at 37 °C, and 5% CO2 and 5% O2, parasites were stained with 2-(4-amidinophenyl)-1H-indole-6-carboxamidine (DAPI) and imaged using an Opera PhenixPlus™ High Content Screening System (PerkinElmer, Waltham, MA, USA). Images were analysed using the Harmony software (PerkinElmer, Waltham, MA, USA). […]
In vitro antiplasmodial image-based assay
Plasmodium falciparum 3D7 were cultured in RPMI1640 (Life Technologies, Camarillo, CA, USA) supplemented with 2.5 mg/mL Albumax II, 5% AB human serum, 25 mM HEPES, and 0.37mM hypoxanthine. Human red blood cells (RBC) (O+) were supplied by Australian Red Cross LifeBlood in accordance with agreement 23-05QLD-23. Use of human RBC for anti-plasmodial experimentation was in accordance with Griffith University Human Ethics Exemption Approval #03/08/11019. Ring stage parasites were treated with compounds following two rounds of sorbitol synchronisation, as previously described. Puromycin, chloroquine, pyrimethamine, and dihydroartemisinin were used as reference compounds. Following incubation of assay plates for 72 h at 37 °C, and 5% CO2 and 5% O2, parasites were stained with 2-(4-amidinophenyl)-1H-indole-6-carboxamidine (DAPI) and imaged using an Opera PhenixPlusTM High Content Screening System (PerkinElmer, Waltham, MA, USA).
Images were analysed using Harmony software (PerkinElmer, Waltham, MA, USA).

Data set [2] relates to HEK293 cells. Nature of the data set: In vitro cytotoxicity assay (resazurin). The format is cell-based, human. The note with it: for cytotoxicity against HEK293 cells at the top concentration tested (in words): 80 µM. On the procedure:
(§1) Human embryonic kidney (HEK293) cells were maintained in DMEM (Life Technologies, Camarillo, CA, USA) containing 10% FBS (Hyclone™ ThermoFisher, Melbourne, Australia). Cytotoxicity testing was undertaken as previously described. In brief, 5 μL of test compound was added to the well of black/clear tissue culture-treated, 384-well plates containing 2000 adherent HEK293 cells/well and incubated 72 h at 37 °C in 5% CO2. […], 5 µL of 600 µM resazurin, diluted in growth media, was added. Plates were further incubated for 6 h and measured for fluorescence at 530 nm excitation and 595 nm emission. The % inhibition was calculated using 0.4% DMSO (no inhibition) and 50 μM puromycin (100% inhibition) data. Puromycin was included as a reference compound to assess assay validity. IC50 values were obtained by plotting % inhibition against log dose using GraphPad Prism v.6 (San Diego, CA, USA) nonlinear regression with a variable slope plot.
In vitro cytotoxicity assay
Human embryonic kidney (HEK293) cells were maintained in DMEM (Life
Technologies, Camarillo, CA, USA) containing 10% FBS (Hyclone™ ThermoFisher, Melbourne, Australia). Cytotoxicity testing was undertaken as previously described.
as §1, with “In brief,” for “Human embryonic kidney (HEK293) cells were maintained in DMEM (Life Technologies, Camarillo, CA, USA) containing 10% FBS (Hyclone™ ThermoFisher, Melbourne, Australia). Cytotoxicity testing was undertaken as previously described. In brief,”, “and incubated for 72 h” for “and incubated 72 h”, “slope plot. […]” for “slope plot.”
In general terms: The colour change of resazurin is a common sign of viable cells or microbes.

Setting [3] is: P. falciparum 3D7, ring-stage, 72 h, mean of duplicate, n = 1.
The mark [4] stands for this setting: reference compounds, P. falciparum 3D7, 72 h.
Setting [5] is: Homo sapiens, HEK293, at top concentration 80 µM, 72 h, mean of duplicate, n = 1, read-out: HEK293 % inhibition ± SD.

By inhibition is commonly meant how much of the control response was suppressed. For orientation: IC50 means the midpoint of a concentration-inhibition curve.

For the compound `Clc1ccc(-c2nnc3c(NCCc4ccccc4)nccn23)cc1` [Compound 2, 3-(4-Chlorophenyl)-N-phenethyl-[1,2,4]triazolo[4,3-a]pyrazin-8-amine], the inhibition at 80 µM in data set [1] is less than 100%. Also, the “cytotoxicity against HEK293 cells at the top concentration tested (in words)” value (shortened to “cytotoxicity against HEK293 cells”) in data set [2] was “no cytotoxicity”.
Consider `CCN(CC)CCCC(C)Nc1ccnc2cc(Cl)ccc12` (centres unmarked) [CQ, chloroquine, reference compound], for which the IC50 in data set [1] (3D7, 72 h) was found to be 0.0212 ± 0.00566 µM.
With `Clc1ccc(-c2nnc3c(NCc4ccccc4)nccn23)cc1` [Compound 4], the inhibition at 80 µM in data set [1] was less than 100%.
Take `CN(C)CCNc1nccn2c(-c3ccc(Cl)cc3)nnc12` [Compound 10, N^1-(3-(4-Chlorophenyl)-[1,2,4]triazolo[4,3-a]pyrazin-8-yl)-N^2,N^2-dimethylethane-1,2-diamine]: the “Selectivity index (fold difference) IC50(HEK293)/IC50(Pf 3D7)” value in data set [1] is on record as more than 3. Moreover, in data set [1] (setting [3]), the IC50 was 23.3 ± 1.7 µM.
Regarding `CC(C)CCNc1nccn2c(-c3ccc(Cl)cc3)nnc12` [Compound 7, 3-(4-Chlorophenyl)-N-isopentyl-[1,2,4]triazolo[4,3-a]pyrazin-8-amine], in data set [1], the inhibition at 80 µM is less than 100%.
With `COc1ccc(C[C@H](N)C(=O)N[C@H]2[C@@H](O)[C@H](n3cnc4c(N(C)C)ncnc43)O[C@@H]2CO)cc1` [PMY, puromycin, reference compound], the “Selectivity index (fold difference) IC50(HEK293)/IC50(Pf 3D7)” value in data set [1] was found to be 13. For the same compound, the IC50 in data set [1] (setting [4]) is 0.0338 ± 0.00566 µM; in data set [2] (Homo sapiens, HEK293, reference compounds, 72 h, read-out: HEK293 IC50 ± SD) it was 0.43 ± 0.0283 µM.
Turning to `COCCNc1nccn2c(-c3ccc(Cl)cc3)nnc12` [Compound 9], in data set [1], the inhibition at 80 µM is less than 100%.
On to `Clc1ccc(-c2nnc3c(NCCN4CCNCC4)nccn23)cc1` [Compound 14], for which the IC50 in data set [1] (setting [3]) turned out to be 9.9 ± 1.27 µM. Moreover, the inhibition at 80 µM in data set [2] (setting [5]) was 84 ± 4%.
For the compound `CCN(CC)CCNc1nccn2c(-c3ccc(Cl)cc3)nnc12` [Compound 11], the “Selectivity index (fold difference) IC50(HEK293)/IC50(Pf 3D7)” value in data set [1] is on record as more than 4. Moreover, the IC50 in data set [1] (setting [3]) turned out to be 22 ± 2.4 µM.
For the compound `Fc1ccc(CCNc2nccn3c(-c4ccc(Cl)cc4)nnc23)cc1` [Compound 3], the inhibition at 80 µM in data set [1] was less than 100%; in data set [2] (setting [5]) it was 74 ± 7%. In data set [2], the “cytotoxicity against HEK293 cells” value was “some inhibition”.
As for `CCCNc1nccn2c(-c3ccc(Cl)cc3)nnc12` [Compound 6], the inhibition at 80 µM in data set [1] was less than 100%.
For `CN(C)CCCNc1nccn2c(-c3ccc(Cl)cc3)nnc12` [Compound 12], in data set [1], the “Selectivity index (fold difference) IC50(HEK293)/IC50(Pf 3D7)” value is recorded as more than 4. Moreover, the IC50 in data set [1] (setting [3]) was determined as 22 ± 1.56 µM.
Take `Clc1ccc(-c2nnc3cncc(Cl)n23)cc1` [Compound 1, 5-chloro-3-(4-chlorophenyl)-[1,2,4]triazolo[4,3-a]pyrazine]: the “Selectivity index (fold difference) IC50(HEK293)/IC50(Pf 3D7)” value in data set [1] is on record as more than 6. For the same compound, in data set [1] (setting [3]), the IC50 was 12.6 ± 1.9 µM. The “cytotoxicity against HEK293 cells” value in data set [2] is recorded as “no cytotoxicity”.
For `CCN(CC)CCCNc1nccn2c(-c3ccc(Cl)cc3)nnc12` [Compound 13], in data set [1] (setting [3]), the IC50 is 11.3 ± 0.57 µM. In addition, the inhibition at up to 80 µM in data set [2] (setting [5]) amounted to 48 ± 5%.
For `CCc1nc(N)nc(N)c1-c1ccc(Cl)cc1` [PMA, pyrimethamine, reference compound], in data set [1] (setting [4]), the IC50 was found to be 0.0112 ± 0.00212 µM.
Consider `Clc1ccc(-c2nnc3c(NC4CCCCC4)nccn23)cc1` [Compound 8], for which the inhibition at 80 µM in data set [1] is less than 100%.
For `C[C@H]1[C@@H](O)O[C@@H]2O[C@@]3(C)CC[C@H]4[C@H](C)CC[C@@H]1[C@@]24OO3` [DHA, dihydroartemisinin, reference compound], the IC50 in data set [1] (setting [4]) is 0.000475 ± 9e-05 µM.
As for `CC(C)(C)OC(=O)NCCCCNc1nccn2c(-c3ccc(Cl)cc3)nnc12` [Compound 15, tert-Butyl(4-((3-(4-chlorophenyl)-[1,2,4]triazolo[4,3-a]pyrazin-8 yl)amino)butyl)carbamate], the figures for the inhibition at 80 µM in data set [1] and in data set [2] (setting [5]) were less than 100% and 57 ± 4%, respectively.
For `Fc1ccc(CNc2nccn3c(-c4ccc(Cl)cc4)nnc23)cc1` [Compound 5], the inhibition at 80 µM in data set [1] is less than 100%.
